The values that follow come from PubChem BioAssay AID179 (DTP/NCI, 2004).

Calls of active or inactive are those of the source.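 Rule for the calls: active = compounds giving half or more protection of infected cells from virus-caused growth loss, again on retest; inactive = the rest.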

Broadly, the EC50 is the concentration needed to bring the measured effect to its halfway point. One may read the IC50 as the midpoint of a concentration-inhibition curve. A high value points to lower potency.

The experiment relates to CEM cells HIV-1 protection, formazan growth assay. Description: NCI AIDS Antiviral Assay. Conditions: for IC50: measured here: growth of uninfected CEM cells. The method in brief:
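Protection of CEM cells against HIV-1 was scored from cell growth (soluble formazan) across five concentrations, with parallel uninfected cells. Lack of protection may reflect toxicity.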

Take `CSc1csc(-c2ccc(-c3ccc(-c4cc(SC)cs4)s3)s2)c1`: the EC50 is > 100 µM and the IC50 was > 100 µM.

With `CNNC1=NS(=O)(=O)c2cc(C)c(Cl)cc2S1`, the EC50 was > 200 µM and the IC50 is > 200 µM.

Consider `CCCCCOCCCCCCCC(=O)O`, for which the EC50 is > 200 µM and the IC50 is 89.1 µM.

For the compound `Cc1cc(C)c2c(c1)CC1(Cc3c(ccc(C)c3C)C1=O)C2=O` (stereo unspecified), the EC50 is > 100 µM and the IC50 is > 100 µM.

`COc1cc(C[C@H]2c3cc(OC)c(OC)cc3CCN2C)c(Oc2cc3c(cc2OC)-c2c(OC)c(OC)cc4c2[C@H](C3)N(C)CC4)cc1OC`: the outcome was inactive.

In the case of `O=C(CC1(O)C(=O)Nc2c(Cl)ccc(Cl)c21)c1ccco1` (stereo unspecified), the EC50 is > 398 µM and the IC50 stood at 77.6 µM.

`Cc1ccc(NC(=O)C(=O)C(C#N)c2ccccc2C)cc1C` (stereo unspecified): the EC50 is > 23.4 µM and the IC50 is > 23.4 µM.

On to `O=C(/C=C/c1ccccc1)Oc1ccc(C(=O)/C=C/c2ccccc2)cc1`, for which the EC50 was > 151 µM and the IC50 was found to be 6.76 µM.

With `CC1(C)CC(=O)C(CC(C(=O)C(=O)Nc2cc(C(F)(F)F)ccc2Cl)C(=O)c2ccco2)C(=O)C1` (stereo unspecified), the EC50 was > 51.3 µM and the IC50 came out at 42.7 µM.

Turning to `Cc1cc(C)c2c(c1)CN1CN2Cc2cc(C)cc(C)c21`, the result was inactive.

As for `NS(=O)(=O)c1ccc(NC(=O)Nc2ccc(F)cc2)cc1`, the EC50 is > 200 µM and the IC50 came out at 74.1 µM.

In the case of `CCn1c(=O)ccc2ccc(N(CCO)CCO)nc21`, the EC50 is > 200 µM and the IC50 was determined as 151 µM.

On to `COc1ccc2c(c1)CCc1c(-c3noc4c3CCc3cc(OC)ccc3-4)noc1-2`, for which the EC50 is > 234 µM and the IC50 is > 234 µM.

For the compound `CC(=O)OC1CC2CC(=O)CC1N2C` (stereo unspecified), the EC50 was > 200 µM and the IC50 is > 200 µM.

As for `CCCC(=O)N[C@H]1C2C3CC4C5CC(C42)C1(C)C53` (stereo partly specified), the EC50 was > 275 µM and the IC50 is > 275 µM.

Regarding `CCC1C(C#N)=C(O)NC(O)=C1C#N`, the EC50 was > 1290 µM and the IC50 stood at 813 µM.

Regarding `C[N+](C)(C)CCCC#CC[N+]1(C)CCc2ccccc2C1` (stereo unspecified), the result was inactive.

Turning to `Cc1csc(/N=C\c2c(O)c3ccccc3oc2=O)n1`, the EC50 is > 200 µM and the IC50 was 36.3 µM.

`O=c1c2cc(Br)cc(Br)c2[nH]c(=S)n1-c1ccccc1`: the EC50 was > 316 µM and the IC50 was determined as 126 µM.

As for `O=S(=O)(O)c1ccc2cc(S(=O)(=O)O)ccc2c1`, the result was inactive.

With `COC(=O)C1=COC2OC3C(C(C)O)C(=O)OC34C=CC1C24` (stereo unspecified), the EC50 was > 589 µM and the IC50 was 63.1 µM.

As for `COc1cc(C(=O)CBr)c(OC)cc1C`, the EC50 is > 200 µM and the half-maximal inhibitory concentration (IC50) is > 200 µM.

Regarding `C=CC1ON(Cc2ccccc2)CCc2cc(OC)c(OC)cc21` (stereo unspecified), the EC50 is > 200 µM and the IC50 turned out to be 40.7 µM.

For `C[N+]12CCC34c5ccccc5NC3C3C(CC(=O)[O-])OCC=C(C1)C3CC42` (stereo unspecified), the result was inactive.

For `Cn1c2ccccc2c2oc(CO)cc(=O)c21`, the EC50 is > 200 µM and the IC50 is 126 µM.

As for `Cc1cc(N(CCC#N)CCC#N)ccc1/C=C(\NC(=O)/C=C/c1ccccc1)C(N)=O`, the outcome was inactive.

In the case of `CC1(C)C2C=C(CCN3CCOCC3)CC1C2` (stereo unspecified), the EC50 is > 200 µM and the IC50 was > 200 µM.

For `Cc1ccccc1SSCCN`, the outcome was inactive.

Regarding `C1OCN2CSCC12` (stereo unspecified), the EC50 was > 1910 µM and the IC50 worked out at 110 µM.

With `N#Cc1c(=O)n(-c2ccccc2)c(O)c2c(N)n[nH]c12`, the EC50 is > 200 µM and the IC50 amounted to 89.1 µM.

`N#Cc1c(Sc2ccccc2N)cccc1Sc1ccccc1N`: the EC50 was > 200 µM and the IC50 is > 200 µM.

On to `CCC1CN2CCc3cc(OC)c(OC)cc3C2CC1CC1c2cc(OC)c(OC)cc2CCN1C(=O)C(N)Cc1ccccc1` (stereo unspecified), for which the result was inactive.

Regarding `N#Cc1c(N)c2c(c(-c3ccccc3)c1-c1ccccc1)C(=O)N(Nc1ccccc1)C2=O`, the EC50 was > 200 µM and the IC50 is 27.5 µM.

For the compound `c1ccc2c(c1)-c1ccccc1C2NC1=NCCO1`, the EC50 was > 200 µM and the IC50 is 26.3 µM.

For `c1ccc(-c2nc3ccccc3nc2SCc2cccnc2)cc1`, the EC50 was > 7.94 µM and the IC50 was > 7.94 µM.

On to `CC(=O)OCC1OC(n2c3c(cc(C#N)c2=S)CCC3)C(OC(C)=O)C(OC(C)=O)C1OC(C)=O` (stereo unspecified), for which the EC50 was > 200 µM and the IC50 amounted to 102 µM.

On to `O=C1C(=O)c2ccccc2C(O)=C1CC=C(Cl)Cl`, for which the EC50 was > 126 µM and the IC50 is 0.955 µM.

On to `NCCCCNCCCN1CC1`, for which the half-maximal effective concentration (EC50) was > 200 µM and the IC50 was found to be 0.148 µM.

As for `CC(=O)N1CCCN(C)/C1=N/[N+](=O)[O-]`, the EC50 was > 200 µM and the IC50 was > 200 µM.

Regarding `CCCCCCCCCCC(C)CCCCCCC(=O)OCC(COP(=O)([O-])OCC[N+](C)(C)C)OC(=O)CCCCCCC(C)CCCCCCCCCC` (stereo unspecified), the outcome was inactive.

For the compound `CCOc1ccc(NC(=O)C(=O)Nn2c(N)nnc2N)cc1`, the EC50 is > 61.7 µM and the IC50 was > 61.7 µM.

As to `COc1ccc(NS(=O)c2c(C)cc(C)cc2C)cc1` (stereo unspecified), the EC50 was > 200 µM and the IC50 is 12 µM.

As for `COC(=O)C(Cc1c[nH]c2ccccc12)NP(=O)(O)OCC1OC(n2cc(Br)c(=O)[nH]c2=O)CC1O` (stereo unspecified), the EC50 is > 200 µM and the IC50 was > 200 µM.

With `CC(O)[C@@]1(c2ccccc2)CC2(CCN(C)CC2)O[C@H]1C` (stereo partly specified), the EC50 is > 200 µM and the IC50 is > 200 µM.

For the compound `COc1ccccc1N/N=c1/c2n(-c3ccc(Cl)cc3)c(=S)n(-c3ccccn3)c1=NCCN=2`, the EC50 is > 200 µM and the IC50 was > 200 µM.

On to `O=S1(=O)CS(=O)(=O)OCCCCO1`, for which the EC50 is > 1070 µM and the IC50 is 63.1 µM.

Turning to `O=C1CC(NC(=O)C(F)(F)F)c2c(Br)sc(N3CCNCC3)c21` (stereo unspecified), the EC50 was > 200 µM and the IC50 worked out at 162 µM.

Take `CN(C)C(=S)SSSSC(=S)N(C)C`: the EC50 is > 2 µM and the IC50 turned out to be 0.525 µM.

On to `CN1C(CC(O)(c2ccccc2)c2ccccc2)CCCC1CC(O)(c1ccccc1)c1ccccc1` (stereo unspecified), for which the EC50 was > 200 µM and the IC50 stood at 57.5 µM.

In the case of `Brc1cscc1Cc1cscc1Br`, the EC50 was > 200 µM and the IC50 is 74.1 µM.

With `Cc1cn(C2OCC(CO)C2N=[N+]=[N-])c(=O)[nH]c1=O` (stereo unspecified), the EC50 was > 200 µM and the IC50 was > 200 µM.

In the case of `Cc1ccc(/C(O)=C/c2nc3ccccc3[nH]c2=O)c(C)c1`, the EC50 is > 200 µM and the IC50 was 35.5 µM.

In the case of `CCOC(=O)CSC1NC(C(=O)OC)CC1OC` (stereo unspecified), the EC50 was > 200 µM and the IC50 was > 200 µM.

Turning to `O=[N+]([O-])c1ccc(C=Cc2ccccc2)cc1.[C-]#[O+].[C-]#[O+].[C-]#[O+].[Cr]`, the outcome was inactive.

For `CC/C(C)=C1/CC(C)(C)N=C1C`, the EC50 is > 200 µM and the IC50 turned out to be 89.1 µM.

For the compound `CNS(=O)(=O)NN(C)S(=O)(=O)c1ccc(C)cc1`, the EC50 is > 617 µM and the IC50 is > 200 µM.

Consider `Cc1ccc(C)c(N2C(=O)C(=O)C(c3nc4ccccc4s3)/C(=N/N)C2=O)c1` (stereo unspecified), for which the EC50 is > 50.1 µM and the IC50 is > 50.1 µM.

With `NC1=Nc2ccccc2Sc2nnc(-c3ccc(Cl)cc3)n21`, the EC50 was > 200 µM and the IC50 amounted to 115 µM.

Consider `CCSc1nc2c([nH]1)c(=S)n(C)c(=S)n2C`, for which the EC50 is > 200 µM and the IC50 stood at 41.7 µM.

Take `CC(C)(C)c1cc(C(C)(C)C)c2[n+]([O-])ssc1-2`: the EC50 is > 145 µM and the IC50 was determined as 20.4 µM.

Consider `N#Cc1c(-c2ccco2)cc(-c2ccc(N)cc2)[nH]c1=O`, for which the EC50 was > 25.7 µM and the IC50 is > 25.7 µM.

On to `NC(=S)N/N=C/C(O[C@@H](/C=N/NC(N)=S)CO)n1cnc2c(N)ncnc21` (stereo partly specified), for which the EC50 is > 437 µM and the IC50 worked out at 89.1 µM.

For the compound `CN1CCN(c2cc3nc(-c4ccc(Cl)cc4)[nH]c3cc2F)CC1`, the EC50 was > 200 µM and the IC50 came to 11.5 µM.

Regarding `C[N+](C)(CCNc1ccc(NCC[N+](C)(C)Cc2ccc([N+](=O)[O-])cc2)c2c1C(=O)c1ccccc1C2=O)Cc1ccc([N+](=O)[O-])cc1`, the EC50 is > 151 µM and the half-inhibitory concentration (IC50) is > 151 µM.

On to `COC(=O)c1cc(=O)nc2n1C1OC(CO)C(O)C1O2` (stereo unspecified), for which the EC50 was > 200 µM and the IC50 is > 200 µM.

Turning to `CN(C)C=Nc1cccc2c1NSN2`, the EC50 is > 200 µM and the IC50 was > 200 µM.

On to `CC(=O)N[C@]1(C)CCC2C[C@H]1C(C)=NC2(C)C`, for which the EC50 was > 1050 µM and the IC50 is > 1050 µM.

Regarding `O=C(CCN1CCCCC1)N1CCc2c([nH]c3ccccc23)C1c1cccnc1` (stereo unspecified), the EC50 was > 13.5 µM and the IC50 is > 13.5 µM.

For `CC(C)CCCC(C)[C@H]1CCC2[C@@H]3CCC4Nc5c(cnn5-c5ccccc5)C[C@]4(C)C3CC[C@@]21C` (stereo partly specified), the result was inactive.

With `O=c1c(C2=NCCC2)c(-c2ccc[nH]2)[nH]n1-c1ccccc1`, the EC50 was > 200 µM and the IC50 is > 200 µM.

As to `CCOP(=O)(OCC)OCCOCCOP(=O)(OCC)OCC`, the EC50 was > 200 µM and the IC50 is > 200 µM.

Consider `Cc1nc2nn(C)cc2c(=O)n1/N=C/c1ccccc1`, for which the EC50 is > 200 µM and the IC50 is > 200 µM.

Turning to `COC(O)C(=O)c1ccc2c(c1)CC1(C2)Cc2cc3c(cc2C1=O)CCC3` (stereo unspecified), the EC50 was > 200 µM and the IC50 is 32.4 µM.

As to `NC(=O)c1coc(C2OC(CO)C(O)C2O)n1` (stereo unspecified), the EC50 was > 1020 µM and the IC50 was > 1020 µM.

`Oc1[nH]c2ccccc2c1N=NC(=S)N1CCCCCC1`: the EC50 was > 200 µM and the IC50 was 1.32 µM.

For `O=C(Nc1cccc(Cc2cccc(NC(=O)c3ccccc3)c2)c1)c1ccccc1`, the EC50 is > 9.33 µM and the IC50 was > 9.33 µM.
